Molecular target: T1, Interstitial collagenase (Homo sapiens, UniProt P03956)
T1 sequence (P03956 whole entry): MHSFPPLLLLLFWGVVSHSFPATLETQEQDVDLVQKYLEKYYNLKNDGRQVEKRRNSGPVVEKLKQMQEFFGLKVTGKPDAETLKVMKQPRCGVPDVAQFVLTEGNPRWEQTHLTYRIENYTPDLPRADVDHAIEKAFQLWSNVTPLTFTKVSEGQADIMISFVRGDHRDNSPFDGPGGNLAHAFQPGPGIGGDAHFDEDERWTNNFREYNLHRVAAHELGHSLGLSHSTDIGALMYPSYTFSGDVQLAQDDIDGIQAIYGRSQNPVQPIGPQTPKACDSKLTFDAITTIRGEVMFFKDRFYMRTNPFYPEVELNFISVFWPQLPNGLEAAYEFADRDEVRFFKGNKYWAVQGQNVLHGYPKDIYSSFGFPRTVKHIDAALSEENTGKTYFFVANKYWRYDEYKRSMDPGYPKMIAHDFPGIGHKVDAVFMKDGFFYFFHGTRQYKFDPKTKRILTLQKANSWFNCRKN
Experiment: Inhibitory activity against matrix metalloprotease-1; No activity upto solubility limit

Ki: > 30 µM
Compound: C=C[C@@H]1OC(c2ccc(Br)cc2)=N[C@H]1Sc1ccccc1 [(4S,5S)-2-(4-Bromo-phenyl)-4-phenylsulfanyl-5-vinyl-4,5-dihydro-oxazole]

— BindingDB's records for doi:10.1016/j.bmcl.2004.07.023 (North Dakota State University, 2004)
